# Results published in patent US10633417B2 (priority 2013, dated 2020).
# Test system: Sprague-Dawley rats
# Settings: rat, in vivo
Compound,"activity on mechanical allodynia (von Frey), days 14 and 21","OXA-induced pain threshold decrease (von Frey), day 7, 30 min"
"CC(C)C[C@H](CN)CC(=O)O [Pregabalin, pregabalin]",active,–
GCCSDPRCRYRCR [RgIA],–,reverted
